The structures appear in SMILES notation. Read-outs that look alike come from different tables or passages of the source.

For one assay, the system named is MDA-MB 231 (breast). The assay is described as follows: IC-50 in various cell lines (Table V), MDA-MB 231. Type of assay: cell-based. The conditions noted are these: Homo sapiens.
The subject of a further assay is CaCO2 (Colon Carcinoma). The experiment in a line: IC-50 in various cell lines (Table V), CaCO2. It is filed as cell-based. The settings on record: Homo sapiens, Caco-2.
For another assay, the system named is UACC 903 melanoma cells. The experiment in a line: Tumor development in nude mice, subcutaneous UACC 903, i.p. treatment. The conditions noted are these: 0.76 micromoles (3 ppm selenium) i.p.; compared to controls; FIG. 14A.
The test system of assay [1] is IGROV-1 (ovarian carcinoma). The experiment in a line: IC-50 in various cell lines (Table V), IGROV-1. Type of assay: cell-based. The conditions noted are these: Homo sapiens.
Another assay relates to 1205LU (Melanoma). The assay is described as follows: IC-50 in various cell lines (Table V), 1205LU. It is filed as cell-based. The conditions noted are these: Homo sapiens.
Assay [2] relates to FF2441 (fibroblast cells). The experiment in a line: IC-50 in various cell lines (Table V), FF2441. It is filed as cell-based. The conditions noted are these: Homo sapiens.
For the next assay, the system named is PC-3 (Prostate). The experiment in a line: IC-50 in various cell lines (Table V), PC-3. It is filed as cell-based.
Assay [3] relates to HT1080 (Soft Tissue Sarcoma). The assay is described as follows: IC-50 in various cell lines (Table V), HT1080. The settings on record: Homo sapiens, HT-1080. It is filed as cell-based.
The next assay has as its system A549 (lung). The experiment in a line: IC-50 in various cell lines (Table V), A549. Type of assay: cell-based. The settings on record: Homo sapiens.
The subject of the next assay is UACC-903 (Melanoma). The experiment in a line: IC-50 in various cell lines (Table V), UACC-903. Type of assay: cell-based. The settings on record: Homo sapiens.
Another assay concerns UACC 903M cells. The experiment in a line: IC50 of NAC conjugate in UACC 903M cells. Type of assay: cell-based.

With `C[S+]([O-])CCCCN=C=[Se]` (centres unmarked) [SFN Iso Se, 1-isoselenocyanato-4-(methylsulfinyl)butane], the IC50 in the assay on MDA-MB 231 (breast) (MDA-MB-231) is 20 ± 0.46 µM; with CaCO2 (Colon Carcinoma), 16 ± 0.4 µM; in [1] (IGROV-1), > 50 µM; in the assay with 1205LU (Melanoma) (1205Lu) it was 39.2 ± 2 µM; in [2] (FF2441) it was > 50 µM; in the assay on PC-3 (Prostate) it was 24.8 ± 0.58 µM. The values for the IC50 (in assay [3]; with A549 (lung) (A549); with UACC-903 (Melanoma) (UACC-903)) were 25.6 ± 1.82 µM, 35 ± 1.7 µM and 17 ± 0.95 µM, respectively. The “tumor development” value in the assay with UACC 903 melanoma cells is given as “inhibition of tumor development”.

In the case of `C[S+]([O-])CCCCN=C=S` (centres unmarked) [SFN, sulforaphane, reference compound], the IC50 is 57 ± 5 µM with MDA-MB 231 (breast) (MDA-MB 231 (breast), read-out: IC-50); 48 ± 5.9 µM in the assay on CaCO2 (Colon Carcinoma) (CaCO2 (Colon Carcinoma), read-out: IC-50); > 50 µM in assay [1] (IGROV-1 (ovarian carcinoma), read-out: IC-50); > 50 µM with 1205LU (Melanoma) (1205LU (Melanoma), read-out: IC-50); > 50 µM in assay [2] (FF2441 (fibroblast cells), read-out: IC-50); > 50 µM in the assay on PC-3 (Prostate) (PC-3 (Prostate), read-out: IC-50). Further, the IC50 in assay [3] (HT1080 (Soft Tissue Sarcoma), read-out: IC-50) was > 50 µM; in the assay with A549 (lung) (A549 (lung), read-out: IC-50), 73 ± 3.6 µM; in the assay on UACC-903 (Melanoma) (UACC-903 (Melanoma), read-out: IC-50) it was 40 ± 0.89 µM.

For the compound `CC(=O)NC(CSC(=[Se])NCCCCc1ccccc1)C(=O)O` (centres unmarked) [compound 5], the IC50 in the assay on UACC 903M cells stood at 17 ± 2 µM.
